From the supplement of paper PMC4932681

What was measured:
ZR-75-1 [1] = experiment: relative IC50 (midpoint of fitted logistic curve, plateau may be below 50% inhibition; CellTiter-Glo viability); higher = less potent; details: 72 h
Outline: (§1)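 After seeding into 384-well plates with library drugs at five concentrations spanning a 10 000-fold range, breast cancer cell lines and their resistant derivatives were incubated 72 h at 37 °C. Resistant lines received medium with 1 μM of the selecting drug. CellTiter-Glo signal was read on a PHERAstar and scaled to vehicle-only and positive controls. Drug sensitivity score, relative IC50 (the curve midpoint) and top-dose inhibition came from logistic fits run in the Breeze pipeline.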

T-47D Tam2 [2] = experiment: as above; details: 4-OH-tamoxifen in medium 1 µM; 72 h
Outline: as §1

BT-474 Tam2 [3] = experiment: as above; details: 4-OH-tamoxifen in medium 1 µM; 72 h
Outline: as §1

MCF-7 Tam1 [4] = experiment: as above; details: 4-OH-tamoxifen in medium 1 µM; 72 h
Outline: as §1

BT-474 [5] = experiment: as above; details: 72 h
Outline: as §1

ZR-75-1 Tam1 [6] = experiment: as above; details: 4-OH-tamoxifen in medium 1 µM; 72 h
Outline: as §1

ZR-75-1 Tam2 [7] = experiment: as above; details: 4-OH-tamoxifen in medium 1 µM; 72 h
Outline: as §1

T-47D [8] = experiment: as above; details: 72 h
Outline: as §1

BT-474 Tam1 [9] = experiment: as above; details: 4-OH-tamoxifen in medium 1 µM; 72 h
Outline: as §1

ZR-75-1 [10] = experiment: drug sensitivity score (DSS) (DSS (dimensionless)); higher = more sensitive; extreme values may be limits of the assay; details: 72 h
Outline: as §1

T-47D Tam2 [11] = experiment: as above; details: 4-OH-tamoxifen in medium 1 µM; 72 h
Outline: as §1

T-47D Tam1 [12] = experiment: as above; details: 4-OH-tamoxifen in medium 1 µM; 72 h
Outline: as §1

BT-474 Tam2 [13] = experiment: as above; details: 4-OH-tamoxifen in medium 1 µM; 72 h
Outline: as §1

MCF-7 Tam1 [14] = experiment: as above; details: 4-OH-tamoxifen in medium 1 µM; 72 h
Outline: as §1

BT-474 [15] = experiment: as above; details: 72 h
Outline: as §1

MCF-7 [16] = experiment: as above; details: 72 h
Outline: as §1

ZR-75-1 Tam1 [17] = experiment: as above; details: 4-OH-tamoxifen in medium 1 µM; 72 h
Outline: as §1

ZR-75-1 Tam2 [18] = experiment: as above; details: 4-OH-tamoxifen in medium 1 µM; 72 h
Outline: as §1

T-47D [19] = experiment: as above; details: 72 h
Outline: as §1

BT-474 Tam1 [20] = experiment: as above; details: 4-OH-tamoxifen in medium 1 µM; 72 h
Outline: as §1

T-47D Tam1 [21] = experiment: relative IC50 (midpoint of fitted logistic curve, plateau may be below 50% inhibition; CellTiter-Glo viability); higher = less potent; details: 4-OH-tamoxifen in medium 1 µM; 72 h
Outline: as §1

MCF-7 [22] = experiment: as above; details: 72 h
Outline: as §1

SMILES | relative IC50 (ZR-75-1 [1]; 4-OH-tamoxifen in medium 1 µM) [µM] | relative IC50 (T-47D Tam2 [2]) [µM] | relative IC50 (BT-474 Tam2 [3]) [µM] | relative IC50 (MCF-7 Tam1 [4]) [µM] | relative IC50 (BT-474 [5]; 4-OH-tamoxifen in medium 0 µM) [µM] | relative IC50 (BT-474 [5]; 4-OH-tamoxifen in medium 1 µM) [µM] | relative IC50 (ZR-75-1 Tam1 [6]) [µM] | relative IC50 (ZR-75-1 Tam2 [7]) [µM] | relative IC50 (T-47D [8]; 4-OH-tamoxifen in medium 0 µM) [µM] | relative IC50 (T-47D [8]; 4-OH-tamoxifen in medium 1 µM) [µM] | relative IC50 (BT-474 Tam1 [9]) [µM] | drug sensitivity score (ZR-75-1 [10]; 4-OH-tamoxifen in medium 0 µM) | drug sensitivity score (ZR-75-1 [10]; 4-OH-tamoxifen in medium 1 µM) | drug sensitivity score (T-47D Tam2 [11]) | drug sensitivity score (T-47D Tam1 [12]) | drug sensitivity score (BT-474 Tam2 [13]) | drug sensitivity score (MCF-7 Tam1 [14]) | drug sensitivity score (BT-474 [15]; 4-OH-tamoxifen in medium 0 µM) | drug sensitivity score (BT-474 [15]; 4-OH-tamoxifen in medium 1 µM) | drug sensitivity score (MCF-7 [16]; 4-OH-tamoxifen in medium 0 µM) | drug sensitivity score (MCF-7 [16]; 4-OH-tamoxifen in medium 1 µM) | drug sensitivity score (ZR-75-1 Tam1 [17]) | drug sensitivity score (ZR-75-1 Tam2 [18]) | drug sensitivity score (T-47D [19]; 4-OH-tamoxifen in medium 0 µM) | drug sensitivity score (T-47D [19]; 4-OH-tamoxifen in medium 1 µM) | drug sensitivity score (BT-474 Tam1 [20]) | relative IC50 (T-47D Tam1 [21]) [µM] | relative IC50 (MCF-7 [22]; 4-OH-tamoxifen in medium 0 µM) [µM] | relative IC50 (MCF-7 [22]; 4-OH-tamoxifen in medium 1 µM) [µM] | relative IC50 (ZR-75-1 [1]; 4-OH-tamoxifen in medium 0 µM) [µM]
C/C(=C\c1csc(C)n1)[C@@H]1C[C@@H]2O[C@]2(C)CCC[C@H](C)[C@H](O)[C@@H](C)C(=O)C(C)(C)[C@@H](O)CC(=O)O1 [Patupilone  (Epothilone B)] | > 1 | 0.0147 | 0.0297 | > 1 | 0.0201 | 0.00598 | > 1 | > 1 | 0.00951 | 0.242 | 0.0118 | 4.4 | 0 | 6.29 | 4.63 | 5.53 | 0 | 9.82 | 14.9 | 7.85 | 4.38 | 0 | 0 | 8.94 | 1.35 | 8.19 |  |  |  | 
COc1ccccc1S(=O)(=O)Nc1ccc2c(c1)CN(C)C(=O)N2 [PFI-1] |  | 2.71 | 1.62 | > 10 | 1.1 |  |  |  |  |  |  | 0.0459 | 1.01 | 1.76 | 4.01 | 2.35 | 0 | 2.69 | 0.561 | 2.8 | 2.92 | 1.48 | 1.77 | 0.887 | 0.0577 | 0.704 | 0.492 | 2.53 | 1.89 | 
Nc1nc(F)nc2c1ncn2[C@@H]1O[C@H](CO)[C@@H](O)[C@@H]1O [Fludarabine] | > 10 | > 10 | > 10 | > 10 | > 10 | > 10 | > 10 | > 10 | > 10 | > 10 | > 10 | 0 | 0 | 0 | 2.13 | 0 | 0 | 0 | 0 | 0 | 1.23 | 0 | 0 | 0 | 0 | 0 |  | > 10 |  | > 10
COc1cc(Nc2ncc(F)c(Nc3ccc4c(n3)NC(=O)C(C)(C)O4)n2)cc(OC)c1OC [Tamatinib (R406)] | > 10 | > 10 | > 10 | > 10 | > 10 | > 10 | > 10 | > 10 | > 10 | > 10 | > 10 | 0 | 0 | 0 | 0.592 | 0 | 0 | 0 | 0 | 0 | 0 | 0 | 0 | 0 | 0 | 0 |  | > 10 | > 10 | > 10
